Reference: publication PMC6651381 (Molecules, 2019)
Where two headings read alike, the source gives them in different places. Marks after values point to notes of the source that are not given here.

Key:
mice [1] = tested on: mice; design: method as in PMID 25446027; settings: i.p., dose protecting 50% of animals against seizures, in mg/kg; cited from earlier work
rats [2] = tested on: rats; design: method as in PMID 25446027; settings: p.o., in mg/kg; cited from earlier work
mice [3] = settings: cited from earlier work
Vibrio harveyi BB7XM [4] = assay: Vibrio harveyi mutagenicity test, BB7XM; format: cell-based; settings: 40 ng/mL; for MI (mutagenic index): positive when MI ≥ 2
Method: (§1) In the experiment, overnight cultures of bacterial strains BB7, BB7M, BB7X, and BB7XM were used. Each culture was centrifuged and 10 µL of V. harveyi pellets was placed in 20 mL of BOSS medium. The culture was cultivated at 30 °C until the optical density reached 0.1 at 600 nm (OD600). Then, 10 µL of test compound solution (final concentration of 40 ng/mL) was added to the bacterial culture and incubated. Incubation was continued until OD600 reached 0.3–0.4. Next, 5 × 10^6 bacterial cells were spread onto BOSS agar plates with neomycin. The plates were incubated at 30 °C for 48 h and the number of neomycin-resistant colonies was counted. […] All the experiments were analyzed in three independent repetitions. Finally, MI was calculated.

Vibrio harveyi BB7M [5] = format: cell-based; settings: 40 ng/mL; for MI (mutagenic index): positive when MI ≥ 2
Method: as §1

Vibrio harveyi BB7 [6] = format: cell-based; settings: BB7, 40 ng/mL; for MI (mutagenic index): positive when MI ≥ 2
Method: as §1

Vibrio harveyi BB7X [7] = format: cell-based; settings: 40 ng/mL; for MI (mutagenic index): positive when MI ≥ 2
Method: as §1

mice [8] = tested on: mice; design: method as in PMID 25446027; settings: i.p., printed in the ED50(MES) column; cited from earlier work
[9] = tested on: Salmonella typhimurium TA100; format: cell-based; settings: TA100, 40 ng/mL; for MI (mutagenic index): positive when MI ≥ 2
Method: The Ames assay was conducted by the preincubation method using S. typhimurium TA100 strain [60]. Each probe was performed in triplicate; 100 µL of the overnight bacterial culture, 50 µL of the investigated compounds at a concentration of 40 ng/mL, and 500 µL of a buffer solution were preincubated for 30 min at 37 °C and then added to 2 mL of the top agar containing histidine/biotin solution. The resulting mixture was poured onto minimal glucose plates. After 48 h incubation, the revertants were counted manually and the results were expressed as mutagenic index (MI) (MI = the number of revertant colonies induced in the tested sample/the number of spontaneous revertants in the negative control). […] DMSO served as the negative (solvent) control.

[10] = tested on: Salmonella typhimurium TA100; format: cell-based; settings: for Inhib. (%) of mutagenicity: against NQNO 40 ng/mL; for Number of revertants, Mean ± SD (antimutagenicity): test compound plus NQNO 40 ng/mL, NQNO line = mutagen alone
Description: (§2) Triplicate plates were set up with each test compound concentration and the entire experiment was repeated twice.

[11] = target: recombinant human P-gp membranes (Homo sapiens, UniProt P08183); assay: P-gp ATPase activity assay (P-gp-Glo); settings: compounds 10–100 µM, verapamil 100 µM; 5 mM Mg ATP, 37 °C, 45 min
Sequence of recombinant human P-gp membranes (P08183 whole entry): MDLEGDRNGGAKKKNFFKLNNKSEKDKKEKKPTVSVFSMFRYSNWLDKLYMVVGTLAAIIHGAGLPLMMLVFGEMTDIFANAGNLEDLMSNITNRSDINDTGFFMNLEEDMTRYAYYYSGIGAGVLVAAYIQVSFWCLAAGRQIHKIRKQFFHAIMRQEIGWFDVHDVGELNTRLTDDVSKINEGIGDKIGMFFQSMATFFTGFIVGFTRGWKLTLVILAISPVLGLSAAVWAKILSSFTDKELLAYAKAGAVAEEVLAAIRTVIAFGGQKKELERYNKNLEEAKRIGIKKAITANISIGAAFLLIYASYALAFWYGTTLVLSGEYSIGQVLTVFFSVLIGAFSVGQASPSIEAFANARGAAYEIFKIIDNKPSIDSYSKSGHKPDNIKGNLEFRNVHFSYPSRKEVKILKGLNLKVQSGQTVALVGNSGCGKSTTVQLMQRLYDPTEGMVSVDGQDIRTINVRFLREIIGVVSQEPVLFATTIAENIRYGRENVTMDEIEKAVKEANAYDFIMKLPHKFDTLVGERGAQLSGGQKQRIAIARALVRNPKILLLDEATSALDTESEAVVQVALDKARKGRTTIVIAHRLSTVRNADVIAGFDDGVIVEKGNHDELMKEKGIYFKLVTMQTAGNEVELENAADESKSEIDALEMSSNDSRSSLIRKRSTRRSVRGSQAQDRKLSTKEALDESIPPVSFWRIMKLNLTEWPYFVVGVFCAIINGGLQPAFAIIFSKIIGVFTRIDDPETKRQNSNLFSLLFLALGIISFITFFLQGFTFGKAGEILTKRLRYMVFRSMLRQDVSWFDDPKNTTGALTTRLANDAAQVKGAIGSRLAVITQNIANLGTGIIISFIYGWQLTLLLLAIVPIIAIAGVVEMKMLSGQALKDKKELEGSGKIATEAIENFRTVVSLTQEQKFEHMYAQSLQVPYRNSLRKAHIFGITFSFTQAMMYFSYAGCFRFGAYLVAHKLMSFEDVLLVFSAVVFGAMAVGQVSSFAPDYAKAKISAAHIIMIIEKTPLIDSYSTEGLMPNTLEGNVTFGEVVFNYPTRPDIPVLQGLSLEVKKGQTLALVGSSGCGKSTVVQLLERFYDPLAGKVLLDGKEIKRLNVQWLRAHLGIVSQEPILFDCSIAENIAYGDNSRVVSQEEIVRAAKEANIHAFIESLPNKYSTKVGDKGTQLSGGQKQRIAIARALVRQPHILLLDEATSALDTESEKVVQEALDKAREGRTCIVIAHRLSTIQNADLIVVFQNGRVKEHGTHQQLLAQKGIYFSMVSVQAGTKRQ
Method: The changes in the ATPase activity of P-gp were determined by using the P-gp-Glo TM assay system (Promega). […] When P-gp ATPase activity is inhibited, ATP accumulates and becomes a substrate for luciferase, with a consequent increase in luminescence. The tested compounds at increasing concentration (10–100 µM) were incubated with 5 mM Mg ATP and 25 µg recombinant human P-gp membranes at 37 °C for 45 min. The luminescence signal was started by adding ATP detection buffer. After incubation at room temperature for 25 min, the samples were read in white 96-well plates on a multi-plate reader (BIOTEK).

Vibrio harveyi BB7XM [12] = format: cell-based; settings: for Inhib. (%) of mutagenicity: against NQNO 40 ng/mL; for Number of revertants, Mean ± SD (antimutagenicity): test compound plus NQNO 40 ng/mL, NQNO line = mutagen alone
Method: as §1, §2
(§3) The inhibition percentage of mutagenicity was calculated as described above in the Ames antimutagenicity assay procedure.

Vibrio harveyi BB7M [13] = format: cell-based; settings: for Inhib. (%) of mutagenicity: against NQNO 40 ng/mL; for Number of revertants, Mean ± SD (antimutagenicity): test compound plus NQNO 40 ng/mL, NQNO line = mutagen alone
Method: as §1, §2, §3

Vibrio harveyi BB7 [14] = format: cell-based; settings: for Inhib. (%) of mutagenicity: against NQNO 40 ng/mL; for Number of revertants, Mean ± SD (antimutagenicity): test compound plus NQNO 40 ng/mL, NQNO line = mutagen alone
Method: as §1, §2, §3

Vibrio harveyi BB7X [15] = format: cell-based; settings: for Inhib. (%) of mutagenicity: against NQNO 40 ng/mL; for Number of revertants, Mean ± SD (antimutagenicity): test compound plus NQNO 40 ng/mL, NQNO line = mutagen alone
Method: as §1, §2, §3

rats [16] = tested on: rats; design: unit not given beside the values; settings: cited from earlier work
[17] = tested on: human glioblastoma astrocytoma cell line U373; assay: MTT viability test on human glioblastoma cells; format: cell-based; settings: U373, 10, 25, 50 or 100 µM, 24 h; listed as racemic compound
Method: Astrocyte cell line (ATCC, CRL-2541), human glioblastoma astrocytoma cell line U373 (ATCC, HTB17-1055), and human hepatoma HepG2 cells (ATCC, HB-8065) were used in the study. The cells were cultured in standard conditions (37 °C, 5% CO2), in EMEM medium with 2 mM glutamine and 1% non-essential amino acids, all supplemented with 10% FBS and antibiotics (penicillin–streptomycin; 10,000 U/mL; final concentration in culture medium was 1%).
The cells were seeded at a density of 1 × 10^4 in 96-well plates. Following overnight culture, the cells were treated with increasing doses of compounds 1–3 (i.e., 10, 25, 50, or 100 μM) and incubated for 24 h. Next, 10 µL of MTT (3-(4,5-dimethylthiazolyl-2)-2,5-diphenyltetrazolium bromide) reagent (Cayman) was added to each well and after 3 h of incubation (37 °C, 5% CO2) the medium was aspirated, and the formazan produced in the cells appeared as dark crystals at the bottom of the wells. Subsequently, crystal dissolving solution (Cayman) was added to each well and the optical density (OD) was determined at 570 nm on a plate reader (BIOTEK). Doxorubicin (DOX) was used as a positive control. When hepatotoxicity of test compounds was evaluated, the morphology of the cells was also determined using a bright-field inverted microscope (Nikon).

[18] = mice, i.p., dose producing toxicity in 50% of animals
[19] = mice, i.p., value printed in the scMet line

SMILES: NC(=O)N1c2ccccc2C=Cc2ccccc21 [CBZ, carbamazepine]
- ED50(MES) (mice [1]): 9.85 ^#
- ED50(MES) (rats [2]): 3.57 ^^
- TD50 (mice [3]; mouse, in vivo, ip): 47.8 ^#

SMILES: Cc1cc(OCCN[C@@H]2CCCC[C@H]2O)ccc1Cl [Compound 1]
- ED50(MES) (mice [1]): 38.34 ^#
- Number of revertants, Mean ± SD (Vibrio harveyi BB7XM [4]): 18 ± 2
- MI (mutagenic index) (Vibrio harveyi BB7XM [4]): 1.6
- Number of revertants, Mean ± SD (Vibrio harveyi BB7M [5]): 22 ± 3
- MI (mutagenic index) (Vibrio harveyi BB7M [5]): 1.0
- Number of revertants, Mean ± SD (Vibrio harveyi BB7 [6]): 21 ± 3
- MI (mutagenic index) (Vibrio harveyi BB7 [6]): 1.1
- Number of revertants, Mean ± SD (Vibrio harveyi BB7X [7]): 16 ± 5
- MI (mutagenic index) (Vibrio harveyi BB7X [7]): 0.9
- ED50 (scMet) (mice [8]): >90.00 ^#scMet
- Number of revertants, Mean ± SD [9]: 9 ± 4
- MI (mutagenic index) [9]: 0.6
- Inhib. (%) of mutagenicity [10]: (27) %
- Number of revertants, Mean ± SD (antimutagenicity) [10]: 16 ± 2
- effect on P-gp ATPase activity (luminescence) [11]: more potent
- TD50 (mice [3]; [18]): 66.03 ^#
- TD50 (mice [3]; [19]): 66.03 ^#scMet
- Inhib. (%) of mutagenicity (Vibrio harveyi BB7XM [12]): (35) %
- Number of revertants, Mean ± SD (antimutagenicity) (Vibrio harveyi BB7XM [12]): 16 ± 2
- Inhib. (%) of mutagenicity (Vibrio harveyi BB7M [13]): (37) %
- Number of revertants, Mean ± SD (antimutagenicity) (Vibrio harveyi BB7M [13]): 22 ± 2
- Inhib. (%) of mutagenicity (Vibrio harveyi BB7 [14]): (32) %
- Number of revertants, Mean ± SD (antimutagenicity) (Vibrio harveyi BB7 [14]): 26 ± 3
- Inhib. (%) of mutagenicity (Vibrio harveyi BB7X [15]): (31) %
- Number of revertants, Mean ± SD (antimutagenicity) (Vibrio harveyi BB7X [15]): 20 ± 4

SMILES: Cc1cc(OCCN[C@H]2CCCC[C@@H]2O)ccc1Cl [Compound 2]
- Number of revertants, Mean ± SD (Vibrio harveyi BB7XM [4]): 10 ± 3
- MI (mutagenic index) (Vibrio harveyi BB7XM [4]): 0.9
- Number of revertants, Mean ± SD (Vibrio harveyi BB7M [5]): 23 ± 3
- MI (mutagenic index) (Vibrio harveyi BB7M [5]): 1.1
- Number of revertants, Mean ± SD (Vibrio harveyi BB7 [6]): 23 ± 5
- MI (mutagenic index) (Vibrio harveyi BB7 [6]): 1.2
- Number of revertants, Mean ± SD (Vibrio harveyi BB7X [7]): 10 ± 6
- MI (mutagenic index) (Vibrio harveyi BB7X [7]): 0.6
- Number of revertants, Mean ± SD [9]: 3 ± 1
- MI (mutagenic index) [9]: 0.2
- Inhib. (%) of mutagenicity [10]: (38) %
- Number of revertants, Mean ± SD (antimutagenicity) [10]: 14 ± 3
- Inhib. (%) of mutagenicity (Vibrio harveyi BB7XM [12]): (40) %
- Number of revertants, Mean ± SD (antimutagenicity) (Vibrio harveyi BB7XM [12]): 14 ± 4
- Inhib. (%) of mutagenicity (Vibrio harveyi BB7M [13]): (41) %
- Number of revertants, Mean ± SD (antimutagenicity) (Vibrio harveyi BB7M [13]): 20 ± 4
- Inhib. (%) of mutagenicity (Vibrio harveyi BB7 [14]): (38) %
- Number of revertants, Mean ± SD (antimutagenicity) (Vibrio harveyi BB7 [14]): 23 ± 4
- Inhib. (%) of mutagenicity (Vibrio harveyi BB7X [15]): (30) %
- Number of revertants, Mean ± SD (antimutagenicity) (Vibrio harveyi BB7X [15]): 21 ± 3

SMILES: Cc1cc(OCCNC2CCCCC2O)ccc1Cl (stereo not drawn) [Compound 3]
- ED50(MES) (mice [1]): 25.05 ^#
- Number of revertants, Mean ± SD (Vibrio harveyi BB7XM [4]): 15 ± 4
- MI (mutagenic index) (Vibrio harveyi BB7XM [4]): 1.4
- Number of revertants, Mean ± SD (Vibrio harveyi BB7M [5]): 27 ± 4
- MI (mutagenic index) (Vibrio harveyi BB7M [5]): 1.7
- Number of revertants, Mean ± SD (Vibrio harveyi BB7 [6]): 23 ± 3
- MI (mutagenic index) (Vibrio harveyi BB7 [6]): 1.4
- Number of revertants, Mean ± SD (Vibrio harveyi BB7X [7]): 13 ± 4
- MI (mutagenic index) (Vibrio harveyi BB7X [7]): 1.0
- ED50(MES) (rats [2]): 99.25 ^^
- ED50 (scMet) (mice [8]): >150 ^#scMet
- Number of revertants, Mean ± SD [9]: 6 ± 3
- MI (mutagenic index) [9]: 0.4
- TD50 (rats [16]; rats, p.o.): >250 ^^
- Inhib. (%) of mutagenicity [10]: (41) %
- Number of revertants, Mean ± SD (antimutagenicity) [10]: 13 ± 3
- TD50 (mice [3]; [18]): 71.04 ^#
- TD50 (mice [3]; [19]): 71.04 ^#scMet
- Inhib. (%) of mutagenicity (Vibrio harveyi BB7XM [12]): (57) %
- Number of revertants, Mean ± SD (antimutagenicity) (Vibrio harveyi BB7XM [12]): 10 ± 4
- Inhib. (%) of mutagenicity (Vibrio harveyi BB7M [13]): (36) %
- Number of revertants, Mean ± SD (antimutagenicity) (Vibrio harveyi BB7M [13]): 22 ± 5
- Inhib. (%) of mutagenicity (Vibrio harveyi BB7 [14]): (51) %
- Number of revertants, Mean ± SD (antimutagenicity) (Vibrio harveyi BB7 [14]): 19 ± 3
- Inhib. (%) of mutagenicity (Vibrio harveyi BB7X [15]): (29) %
- Number of revertants, Mean ± SD (antimutagenicity) (Vibrio harveyi BB7X [15]): 21 ± 4
- cytotoxicity against human glioblastoma cells (MTT viability) [17]: less cytotoxic than the two enantiomers

SMILES: O=C1NC(=O)C(c2ccccc2)(c2ccccc2)N1 [PHT, phenytoin]
- ED50(MES) (mice [1]): 6.48 ^#
- ED50(MES) (rats [2]): 32.2 ^^
- TD50 (rats [16]; rats, p.o.): >500 ^^

SMILES: CCCC(CCC)C(=O)O [VPA, valproate]
- ED50(MES) (mice [1]): 287 ^#
- ED50(MES) (rats [2]): 395 ^^
- TD50 (rats [16]; rat, in vivo, po): 859 ^^
